≈ marks a conversion by molar mass, not a printed value. Where two headings read alike, the source gives them in different places.
Key:
[1] = tested on: Escherichia coli MC4100 harboring the IMP4213; assay: MIC, broth micro-dilution technique (CLSI); type: cell-based; settings: 35° C., 22 hours; for MIC: Escherichia coli, 22 h, read-out: MIC (μg/mL) E. coli, Table 1 protocol: serial 2-fold dilutions starting from 64 μg/ml; for MIC (μg/mL) E. coli: Table 1 protocol: serial 2-fold dilutions starting from 64 μg/ml
Protocol: (§1) In vitro antimicrobial activity of each compound was determined by measuring minimal inhibitor concentrations (MICs) using the broth micro-dilution technique as approved by the Clinical and Laboratory Standards Institute (CLSI) (Methods for Dilution Antimicrobial Susceptibility Tests for Bacteria that Grow Aerobically; Approved Standard—Eighth Edition. CLSI document M07-A8. Wayne, Pa.: Clinical and Laboratory Standards; 2009). Antibacterial activity was measured against three strains of bacteria: a Methicillin Resistant Staphylococcus aureus strain USA 300 (NRS384); a MRSA COL (NRS100), another Methicillin Resistant Staphylococcus aureus strain; and a strain of Escherichia coli MC4100 harboring the IMP4213, which results in increased outer-membrane permeability (B Martin and Silhavy T. Imp/OstA is required for cell envelope biogenesis in Escherichia coli. (2002) Molecular Microbiology, 45(5), 1289-1302). Cells were inoculated onto plates of Trypyticase Soy Agar or Luria Agar respectively and grown at 35° C. for 20 hours. Inocula suspensions were prepared by scraping cells into 1 ml of testing media (cation adjusted Mueller Hinton Broth supplemented with 0.002% v/v Tween-80) and diluting to a final OD600 nm of 0.01.
(§2) Test compounds were prepared in DMSO at a concentration of 10 mg/ml. These compound stocks were diluted into testing media at a concentration of 64 μg/ml and serial 2-fold dilutions were made in the same media, in 96-well U bottom microtiter dishes, for a total of 10 compound concentrations (Table 1). In modified protocols (Table 2), compound stocks were diluted into testing media at a concentration of 4 μg/mL and serial 2-fold dilutions were made in the same media, in 96-well U bottom microtiter dishes, for a total of 10 compound concentrations. Inocula suspensions were added to the 2-fold serial dilutions of test compounds to a final density of OD OD600 nm of 0.0005 and incubated at 35° C. for 22 hours. […] The results from the protocol starting from a concentration of 64 µg/mL are listed in Table 1 and the results from the modified protocol are shown in Table 2.

[2] = tested on: Methicillin Resistant Staphylococcus aureus strain USA 300 (NRS384); assay: MIC, broth micro-dilution technique (CLSI); type: cell-based; settings: for MIC: Staphylococcus aureus, 22 h, read-out: MIC (μg/mL) S. aureus
Protocol: as §1, §2

[3] = Table 1 protocol: serial 2-fold dilutions starting from 64 μg/ml, 35° C., 22 hours

| SMILES | MIC [1] [µg/mL] | MIC [2] [µg/mL] | other results |
| --- | --- | --- | --- |
| CCCCCCCC(=O)NCCC(=O)N[C@@H](CCCCN)C(=O)N(C)[C@@H]1C(=O)N[C@@H](C)C(=O)N[C@H](C(=O)N[C@@H](C)C(=O)C2CO2)Cc2ccc(O)c(c2)-c2cc1ccc2O (some centres unmarked) [Compound 101] | > 64 | 64 (≈ 76.6 µM) |  |
| CCCCCCCC(=O)NCCC(=O)N[C@@H](CCCCN)C(=O)N(C)[C@@H]1C(=O)N[C@@H](C)C(=O)N[C@H](C(=O)N[C@@H](C)C(=O)C2CO2)Cc2ccc(O)c(c2)-c2cc1ccc2O (some centres unmarked) [Compound 102] |  |  | MIC (μg/mL) E. coli [1]: >64 µg/mL; MIC (μg/mL) S. aureus [2, 3]: 64 µg/mL (≈ 76.6 µM) |
| CCCCCCCC(=O)N[C@@H](CCCCN)C(=O)N(C)[C@@H]1C(=O)N[C@@H](C)C(=O)N[C@H](C(=O)N[C@@H](C)C(=O)C2CO2)Cc2ccc(O)c(c2)-c2cc1ccc2O (some centres unmarked) [Compound 103] | 23 (≈ 30.1 µM) |  | MIC [2, 3]: 45 µg/mL (≈ 58.8 µM) |
| CC1OC1C(=O)[C@H](C)NC(=O)[C@@H]1Cc2ccc(O)c(c2)-c2cc(ccc2O)[C@H](N(C)C(=O)[C@H](CCCCN)NC(=O)c2ccc(-c3ccc(Cl)cc3)cc2)C(=O)N[C@@H](C)C(=O)N1 (some centres unmarked) [Compound 105] | 8 (≈ 9.22 µM) |  | MIC [2, 3]: 4 µg/mL (≈ 4.61 µM) |
| CC1OC1C(=O)[C@H](C)NC(=O)[C@@H]1Cc2ccc(O)c(c2)-c2cc(ccc2O)[C@H](N(C)C(=O)[C@H](CCCCN)NC(=O)c2ccc(-c3ccc(Cl)cc3)cc2)C(=O)N[C@@H](C)C(=O)N1 (some centres unmarked) [Compound 106] |  |  | MIC (μg/mL) E. coli [1]: 11 µg/mL (≈ 12.7 µM); MIC (μg/mL) S. aureus [2, 3]: 5.7 µg/mL (≈ 6.57 µM) |
| CCCCCCCC(=O)NCCC(=O)N[C@@H](CCCCN)C(=O)N(C)[C@@H]1C(=O)N[C@@H](C)C(=O)N[C@H](C(=O)N[C@@H](C)C(=O)CCl)Cc2ccc(O)c(c2)-c2cc1ccc2O [Compound 107] | > 64 | 64 (≈ 76 µM) |  |
| C[C@H](NC(=O)[C@@H]1Cc2ccc(O)c(c2)-c2cc(ccc2O)[C@H](N(C)C(=O)[C@H](CCCCN)NC(=O)c2ccc(-c3ccc(Cl)cc3)cc2)C(=O)N[C@@H](C)C(=O)N1)C(=O)CCl [Compound 108] | 8 (≈ 9.3 µM) | 4 (≈ 4.65 µM) |  |
| C[C@H](NC(=O)[C@@H]1Cc2ccc(O)c(c2)-c2cc(ccc2O)[C@H](N(C)C(=O)[C@H](CCCCN)NC(=O)c2ccc(-c3ccc(Cl)cc3)cc2)C(=O)N[C@@H](C)C(=O)N1)C(=O)COC(=O)c1ncccn1 [Compound 122] | 32 (≈ 33.8 µM) | 1.4 (≈ 1.48 µM) |  |
| CC(=O)OCC(=O)[C@H](C)NC(=O)[C@@H]1Cc2ccc(O)c(c2)-c2cc(ccc2O)[C@H](N(C)C(=O)[C@H](CCCCN)NC(=O)c2ccc(-c3ccc(Cl)cc3)cc2)C(=O)N[C@@H](C)C(=O)N1 [Compound 123] | 32 (≈ 36.2 µM) | 3.2 (≈ 3.62 µM) |  |
| COC(=O)[C@@H]1CCCN1CC(=O)[C@H](C)NC(=O)[C@@H]1Cc2ccc(O)c(c2)-c2cc(ccc2O)[C@H](N(C)C(=O)[C@H](CCCCN)NC(=O)c2ccc(-c3ccc(Cl)cc3)cc2)C(=O)N[C@@H](C)C(=O)N1 [Compound 126] | > 64 | 32 (≈ 33.6 µM) |  |
| CC[C@H](NC(=O)[C@@H]1Cc2ccc(O)c(c2)-c2cc(ccc2O)[C@H](N(C)C(=O)[C@H](CCCCN)NC(=O)c2ccc(-c3ccc(Cl)cc3)cc2)C(=O)N[C@@H](C)C(=O)N1)C(C)=O [Compound 127] | 64 (≈ 76.2 µM) | > 64 |  |
| CCCCCCCC(=O)NCCC(=O)N[C@@H](CCCCN)C(=O)N(C)[C@@H]1C(=O)N[C@@H](C)C(=O)N[C@H](CO)Cc2ccc(O)c(c2)-c2cc1ccc2O [Compound 153] |  |  | MIC [2, 3]: 130 µg/mL (≈ 179 µM) |
| CCCCc1ccc(-c2ccc(C(=O)NC[C@@H](C)C(=O)N[C@@H](CCCCN)C(=O)N(C)[C@@H]3C(=O)N[C@@H](C)C(=O)N[C@H](C(=O)N[C@@H](C)C(=O)N4CCC[C@H]4C(N)=O)Cc4ccc(O)c(c4)-c4cc3ccc4OC(=O)OCC(C)C)cc2)cc1 [Compound 184] |  | 2 (≈ 1.77 µM) |  |
| CCCCc1ccc(-c2ccc(C(=O)N[C@@H](CN)C(=O)N(C)[C@@H]3C(=O)N[C@@H](C)C(=O)N[C@H](C(=O)O)Cc4ccc(OCCN)c(c4)-c4cc3ccc4OCCN)cc2)cc1 [Compound 292] | 0.063 (≈ 0.0766 µM) |  |  |
| CCCCCCCCCCCCCC(=O)N[C@@H](CN)C(=O)N(C)[C@@H]1C(=O)N[C@@H](C)C(=O)N[C@H](C(=O)N[C@@H](C)B2O[C@@H]3C[C@@H]4C[C@@H](C4(C)C)[C@]3(C)O2)Cc2ccc(OCCN)c(c2)-c2cc1ccc2OCCN [Compound 318] | 0.063 (≈ 0.0629 µM) |  |  |
